Values after ≈ are worked out from the molar mass of the structure shown. “Also recorded” adds a separate entry of the source. Like-named read-outs stand apart in the source and are kept apart here.
Key:
WecA = settings: cited from earlier work
[1] = target: WecA enzyme (P-60 from E. coli B21WecA) (Escherichia coli, UniProt P0AC78); assay: biochemical; assay type: biochemical
M. smegmatis WecA (P-60) = M. smegmatis WecA (P-60) (Mycolicibacterium smegmatis, UniProt A0R211); assay: Kinetic parameter evaluation via WecA activity assay; assay type: biochemical; settings: for Vmax for C50-P-P-Glucosamine-C6-FITC synthesis: crude membrane P-60, Michaelis-Menten plot
M. smegmatis WecA = target: T1, M. smegmatis WecA (Mycolicibacterium smegmatis, UniProt A0R211); assay type: biochemical
T1 sequence (A0R211 1-406): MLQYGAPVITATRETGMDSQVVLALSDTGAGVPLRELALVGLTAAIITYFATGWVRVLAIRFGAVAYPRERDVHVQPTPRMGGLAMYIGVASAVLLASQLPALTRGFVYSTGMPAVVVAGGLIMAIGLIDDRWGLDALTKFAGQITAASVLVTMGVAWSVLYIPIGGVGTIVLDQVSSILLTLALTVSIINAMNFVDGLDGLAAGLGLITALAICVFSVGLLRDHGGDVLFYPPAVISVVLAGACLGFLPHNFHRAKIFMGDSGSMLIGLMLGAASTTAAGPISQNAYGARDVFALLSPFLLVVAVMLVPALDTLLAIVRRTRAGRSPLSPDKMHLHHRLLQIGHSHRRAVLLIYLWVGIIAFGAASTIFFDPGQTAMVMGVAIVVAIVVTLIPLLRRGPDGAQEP

M. tuberculosis = assay: MIC determination against replicating Mtb; assay type: cell-based, Mycobacterium tuberculosis (H37Rv); settings: aerobic
[2] = test system: non-replicating Mtb H37Rv (pFCA-luxAB); assay type: cell-based, M. tuberculosis H37Rv; settings: for MICLORA/MICMABA: ratio of LORA MIC to MABA MIC
[3] = test system: intracellular Mtb CDC1551-tdTomato in J774A.1 cells; assay: Killing effect against intracellular M. tuberculosis in J774A.1 macrophages; assay type: cell-based
non-replicating Mtb = assay: Wayne model under low-oxygen conditions; assay type: cell-based
MurX = target: T2, MurX (Mycolicibacterium smegmatis, UniProt A0R019); settings: cited from earlier work
T2 sequence (A0R019 1-359): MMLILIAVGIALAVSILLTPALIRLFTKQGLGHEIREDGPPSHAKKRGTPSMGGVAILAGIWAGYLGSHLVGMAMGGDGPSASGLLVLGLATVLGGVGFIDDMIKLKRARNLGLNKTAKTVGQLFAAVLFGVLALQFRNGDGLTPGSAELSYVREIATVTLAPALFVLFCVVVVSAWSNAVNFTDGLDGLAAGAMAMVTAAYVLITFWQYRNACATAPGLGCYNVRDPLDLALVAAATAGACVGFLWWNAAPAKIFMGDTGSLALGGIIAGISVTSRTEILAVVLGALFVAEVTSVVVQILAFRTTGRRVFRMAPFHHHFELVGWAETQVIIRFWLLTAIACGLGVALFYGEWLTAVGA

Q: Which “WecA inhibition” value (WecA) does the source give for `CCCCc1ccc(NC(=O)C2=CCN(C)[C@@H]([C@H](O[C@@H]3O[C@H](CN)[C@@H](O)[C@H]3O)[C@H]3O[C@@H](n4ccc(=O)[nH]c4=O)[C@H](O)[C@@H]3O)C(=O)N2C)cc1` [CPZEN-45] here?
A: The value was “inhibit WecA at low concentrations”.

Q: Which “WecA enzyme inhibitory activity” value ([1]; at 20 µg/mL) does the source give for `CO[C@H]1[C@@H](O)[C@H](n2ccc(=O)[nH]c2=O)O[C@@H]1[C@@H](O[C@H]1OC(C(=O)N[C@H]2CCCCNC2=O)=C[C@H](O)[C@@H]1O)C(N)=O` [Capuramycin (6), Capuramycin] here?
A: Its value is “no WecA enzyme inhibitory activity”.

Q: What about the inhibition at 0.02 µg/mL ([1]; read-out: WecA inhibition (%)) of the same compound?
A: The inhibition at 0.02 µg/mL was 0%.

Q: And the inhibition at 2 µg/mL ([1]; read-out: WecA inhibition (%))?
A: Its inhibition at 2 µg/mL is 0%.

Q: What about the inhibition at 20 µg/mL ([1]; read-out: WecA inhibition (%)) of the same compound?
A: The inhibition at 20 µg/mL was 0%.

Q: For `CCCCCCCCCC(=O)O[C@@H]1[C@H](OC)[C@@H]([C@@H](O[C@H]2OC(C(=O)N[C@H]3CCC[C@@H](C)NC3=O)=C[C@H](O)[C@@H]2O)C(N)=O)O[C@H]1n1ccc(=O)[nH]c1=O` [SQ641 (8)], which “WecA enzyme inhibitory activity” value [1] is on record?
A: The value was “no WecA enzyme inhibitory activity”.

Q: With `CC(=O)N[C@H]1[C@@H](OP(=O)(O)OP(=O)(O)OC[C@H]2O[C@@H](n3ccc(=O)[nH]c3=O)[C@H](O)[C@@H]2O)O[C@H](CO)[C@@H](O)[C@@H]1O` [UDP-GlcNAc] as the compound, how does the Km (M. smegmatis WecA (P-60); 140 µM exogenous decaprenyl phosphate (C50-P)) read?
A: Its Km is 110 µM.

Q: Which results are given for `COC1C(C(OC2OC(C(=O)NC3CCCCNC3=O)=CC(O)C2O)C(N)=O)OC(n2ccc(=O)[nH]c2=O)C1OC` (centres unmarked) [UT-01320 (12)]?
A: IC50 against M. smegmatis wecA (M. smegmatis WecA): 0.0507 µg/mL (≈ 0.0869 µM); MIC (MABA), replicating Mtb (M. tuberculosis): 1.5 µg/mL (≈ 2.57 µM); MIC (LORA), non-replicating Mtb ([2]; low-oxygen conditions): 2.58 µg/mL (≈ 4.42 µM); MICLORA/MICMABA [2]: 1.72; Bactericidal effect against intracellular Mtb (words, comparison with TB drugs) ([3]; 2x and 4x MIC, up to 72h, J774A.1, listed as 12): equal to those of capreomycin; also recorded: faster killing effect than rifampicin; Time to kill Mtb in infected macrophages ([3]; x2 MICLORA, […]): ≤ 72 h; Effectiveness in non-replicating Mtb (Wayne model) (non-replicating Mtb): confirmed; MurX enzyme inhibitory activity (MurX; even at 400 µg/mL, as previously reported): did not exhibit MurX enzyme inhibitory activity; WecA enzyme inhibitory activity [1]: inhibited completely; WecA inhibition (%) obtained via HPLC [1]: 100 (100) %

Q: Which MICLORA/MICMABA [2] does the source give for `CO[C@H]1/C=C/O[C@@]2(C)Oc3c(C)c(O)c4c(O)c(c(/C=N/N5CCN(C)CC5)c(O)c4c3C2=O)NC(=O)/C(C)=C\C=C\[C@H](C)[C@H](O)[C@@H](C)[C@@H](O)[C@@H](C)[C@H](OC(C)=O)[C@@H]1C` [rifampicin, reference compound] here?
A: Its MICLORA/MICMABA is 7.35.

Q: With “Decaprenyl-P-P-Glucosamine-C6-FITC [C50-P-P-Glucosamine-C6-FITC (3)]” as the compound, how does the “Vmax for C50-P-P-Glucosamine-C6-FITC synthesis” value (M. smegmatis WecA (P-60)) read?
A: The value was 0.404 µM/min.

Q: What about the “Vmax for C50-P-P-Glucosamine-C6-FITC synthesis” value (M. smegmatis WecA (P-60); listed as C50-P-P-Glucosamine-C6-FITC) of the same compound?
A: Its value is 0.4041 µM/min.

Q: Which results are given for “Tunicamycin [Tunicamycin (5), reference compound]”?
A: IC50 against M. smegmatis wecA (M. smegmatis WecA; UV-Vis dose-response curve): 0.59 µg/mL; IC50 against MurX (MurX): 2.31 µg/mL

Q: For “UDP-Glucosamine-C6-FITC [UDP-Glucosamine-C6-FITC (1)]”, which Km (M. smegmatis WecA (P-60); with undecaprenyl phosphate) is on record?
A: The Km was 196 µM.

— paper PMC5012913 (Analytical biochemistry, 2016)
